From patent US12077503B2, “Substituted cyclic amides and their use as herbicides” (FMC CORPORATION, priority 2015, dated 2024)
Like-named read-outs stand apart in the source and are kept apart here.

Key:
Format in all cases: in vivo
[1] = test system: ryegrass, Italian (Italian ryegrass, Lolium multiflorum); experiment: Test A preemergence; details: Lolium multiflorum, pre-emergence, 240 h, preemergence, 0 to 100 scale where 0 is no effect and 100 is complete control, read-out: Ryegrass, Italian plant response rating; for pest or weed control at 125 g/ha: 125 g ai/ha, visual injury rating, approximately 10 d; for pest or weed control at 500 g/ha: 500 g ai/ha
How it was run: (§1)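 Seeded soil received test chemicals as a preemergence directed spray, and seedlings at one to two leaves, 2–10 cm tall, received them postemergence, in a non-phytotoxic, surfactant-containing solvent mixture. Pots were held in a greenhouse for approximately 10 d, then rated for injury from 0, no effect, to 100, complete control.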

[2] = test system: pigweed (Amaranthus retroflexus); experiment: Test A preemergence; details: Amaranthus retroflexus, pre-emergence, 240 h, preemergence, 0 to 100 scale where 0 is no effect and 100 is complete control, read-out: Pigweed plant response rating; for pest or weed control at 125 g/ha: 125 g ai/ha, visual injury rating, approximately 10 d; for pest or weed control at 500 g/ha: 500 g ai/ha
[3] = test system: ragweed (common ragweed, Ambrosia elatior); experiment: Test A preemergence; details: Ambrosia artemisiifolia, pre-emergence, 240 h, preemergence, 0 to 100 scale where 0 is no effect and 100 is complete control, read-out: Ragweed plant response rating; for pest or weed control at 125 g/ha: 125 g ai/ha, visual injury rating, approximately 10 d; for pest or weed control at 500 g/ha: 500 g ai/ha
How it was run: as §1

[4] = test system: barnyardgrass (Echinochloa crus-galli); experiment: Test A preemergence; details: Echinochloa crus-galli, pre-emergence, 240 h, preemergence, 0 to 100 scale where 0 is no effect and 100 is complete control, read-out: Barnyardgrass plant response rating; for pest or weed control at 125 g/ha: 125 g ai/ha, visual injury rating, approximately 10 d; for pest or weed control at 500 g/ha: 500 g ai/ha
How it was run: as §1

Kochia (Kochia scoparia) [5] = experiment: Test A preemergence; details: Bassia scoparia, pre-emergence, 240 h, preemergence, 0 to 100 scale where 0 is no effect and 100 is complete control, read-out: Kochia plant response rating; for pest or weed control at 125 g/ha: 125 g ai/ha, visual injury rating, approximately 10 d; for pest or weed control at 500 g/ha: 500 g ai/ha
How it was run: as §1

[6] = test system: giant foxtail (Setaria faberii); experiment: Test A preemergence; details: Setaria faberi, pre-emergence, 240 h, preemergence, 0 to 100 scale where 0 is no effect and 100 is complete control, read-out: Foxtail, Giant plant response rating; for pest or weed control at 125 g/ha: 125 g ai/ha, visual injury rating, approximately 10 d; for pest or weed control at 500 g/ha: 500 g ai/ha
How it was run: as §1

[7] = test system: ryegrass, Italian (Italian ryegrass, Lolium multiflorum); experiment: Test A postemergence; details: Lolium multiflorum, post-emergence, 240 h; for pest or weed control at 125 g/ha: 125 g ai/ha, visual injury vs untreated controls after approx. 10 d, 0 = no effect, 100 = complete control, read-out: Ryegrass, Italian plant response rating (0 to 100 scale); for pest or weed control at 500 g/ha: 500 g ai/ha
How it was run: as §1

[8] = test system: pigweed (Amaranthus retroflexus); experiment: Test A postemergence; details: Amaranthus retroflexus, post-emergence, 240 h; for pest or weed control at 125 g/ha: 125 g ai/ha, visual injury vs untreated controls after approx. 10 d, 0 = no effect, 100 = complete control, read-out: Pigweed plant response rating (0 to 100 scale); for pest or weed control at 500 g/ha: 500 g ai/ha
How it was run: as §1

[9] = test system: ragweed (common ragweed, Ambrosia elatior); experiment: Test A postemergence; details: Ambrosia artemisiifolia, post-emergence, 240 h; for pest or weed control at 125 g/ha: 125 g ai/ha, visual injury vs untreated controls after approx. 10 d, 0 = no effect, 100 = complete control, read-out: Ragweed plant response rating (0 to 100 scale); for pest or weed control at 500 g/ha: 500 g ai/ha
How it was run: as §1

[10] = test system: Galium (catchweed bedstraw, Galium aparine); experiment: Test A postemergence; details: Galium, post-emergence, 240 h; for pest or weed control at 125 g/ha: 125 g ai/ha, visual injury vs untreated controls after approx. 10 d, 0 = no effect, 100 = complete control, read-out: Galium plant response rating (0 to 100 scale); for pest or weed control at 500 g/ha: 500 g ai/ha
How it was run: as §1

[11] = test system: barnyardgrass (Echinochloa crus-galli); experiment: Test A postemergence; details: Echinochloa crus-galli, post-emergence, 240 h; for pest or weed control at 125 g/ha: 125 g ai/ha, visual injury vs untreated controls after approx. 10 d, 0 = no effect, 100 = complete control, read-out: Barnyardgrass plant response rating (0 to 100 scale); for pest or weed control at 500 g/ha: 500 g ai/ha
How it was run: as §1

Kochia (Kochia scoparia) [12] = experiment: Test A postemergence; details: Bassia scoparia, post-emergence, 240 h; for pest or weed control at 125 g/ha: 125 g ai/ha, visual injury vs untreated controls after approx. 10 d, 0 = no effect, 100 = complete control, read-out: Kochia plant response rating (0 to 100 scale); for pest or weed control at 500 g/ha: 500 g ai/ha
How it was run: as §1

corn (Zea mays) = experiment: Test A postemergence; details: Zea mays, post-emergence, 240 h; for plant injury at 125 g/ha: 125 g ai/ha, visual injury vs untreated controls after approx. 10 d, 0 = no effect, 100 = complete control, read-out: Corn plant response rating (0 to 100 scale)
How it was run: as §1

[13] = test system: giant foxtail (Setaria faberii); experiment: Test A postemergence; details: Setaria faberi, post-emergence, 240 h; for pest or weed control at 125 g/ha: 125 g ai/ha, visual injury vs untreated controls after approx. 10 d, 0 = no effect, 100 = complete control, read-out: Foxtail, Giant plant response rating (0 to 100 scale); for pest or weed control at 500 g/ha: 500 g ai/ha
How it was run: as §1

[14] = test system: wheat (Triticum aestivum); experiment: Test A postemergence; details: Triticum aestivum, post-emergence, 240 h; for plant injury at 125 g/ha: 125 g ai/ha, visual injury vs untreated controls after approx. 10 d, 0 = no effect, 100 = complete control, read-out: Wheat plant response rating (0 to 100 scale); for plant injury at 500 g/ha: 500 g ai/ha
How it was run: as §1

Row | Compound | pest or weed control at 125 g/ha [1] [%] | pest or weed control at 500 g/ha [1] [%] | pest or weed control at 125 g/ha [2] [%] | pest or weed control at 500 g/ha [2] [%] | pest or weed control at 125 g/ha [3] [%] | pest or weed control at 500 g/ha [3] [%] | pest or weed control at 125 g/ha [4] [%] | pest or weed control at 500 g/ha [4] [%] | pest or weed control at 125 g/ha (Kochia (Kochia scoparia) [5]) [%] | pest or weed control at 500 g/ha (Kochia (Kochia scoparia) [5]) [%] | pest or weed control at 125 g/ha [6] [%] | pest or weed control at 500 g/ha [6] [%] | pest or weed control at 125 g/ha ([7]; postemergence) [%] | pest or weed control at 125 g/ha ([8]; postemergence) [%] | pest or weed control at 125 g/ha ([9]; postemergence) [%] | pest or weed control at 125 g/ha ([10]; postemergence) [%] | pest or weed control at 125 g/ha ([11]; postemergence) [%] | pest or weed control at 125 g/ha (Kochia (Kochia scoparia) [12]; postemergence) [%] | plant injury at 125 g/ha (corn (Zea mays); postemergence) [%] | pest or weed control at 125 g/ha ([13]; postemergence) [%] | further results
1 | Cc1c(F)cccc1NC(=O)[C@H]1C(=O)N(C)C[C@@H]1c1ccc2c(c1)OC(F)(F)O2 [Compound 1252] | 80 | 90 | 70 | 90 | 60 | 70 | 100 | 100 | 80 | 80 | 90 | 100 | 70 | 0 | 0 | 50 | 80 | 20 | 80 | 80 | pest or weed control at 500 g/ha ([7]; Postemergence, visual injury, 0 to 100 scale (0 no effect, 100 complete control), approx. 10 d, read-out: Plant response rating, Ryegrass, Italian): 70%; pest or weed control at 500 g/ha ([8]; Postemergence, visual injury, 0 to 100 scale (0 no effect, 100 complete control), approx. 10 d, read-out: Plant response rating, Pigweed): 50%; pest or weed control at 500 g/ha ([9]; Postemergence, visual injury, 0 to 100 scale (0 no effect, 100 complete control), approx. 10 d, read-out: Plant response rating, Ragweed): 50%; pest or weed control at 500 g/ha ([10]; Postemergence, visual injury, 0 to 100 scale (0 no effect, 100 complete control), approx. 10 d, read-out: Plant response rating, Galium): 60%; pest or weed control at 500 g/ha ([11]; Postemergence, visual injury, 0 to 100 scale (0 no effect, 100 complete control), approx. 10 d, read-out: Plant response rating, Barnyardgrass): 90%; pest or weed control at 500 g/ha (Kochia (Kochia scoparia) [12]; Postemergence, visual injury, 0 to 100 scale (0 no effect, 100 complete control), approx. 10 d, read-out: Plant response rating, Kochia): 60%; Corn plant response rating (crop injury, 0 = no effect, 100 = complete kill) at 500 g/ha (corn (Zea mays); Postemergence, 500 g ai/ha, visual injury, 0 to 100 scale (0 no effect, 100 complete control), approx. 10 d): 90%; pest or weed control at 500 g/ha ([13]; Postemergence, visual injury, 0 to 100 scale (0 no effect, 100 complete control), approx. 10 d, read-out: Plant response rating, Foxtail, Giant): 80%; plant injury at 125 g/ha ([14]; postemergence): 70%; plant injury at 500 g/ha ([14]; Postemergence, visual injury, 0 to 100 scale (0 no effect, 100 complete control), approx. 10 d, read-out: Plant response rating, Wheat): 70%
2 | Cc1c(F)cccc1NC(=O)[C@H]1C(=O)N(C)C[C@@H]1c1ccc(F)c(Br)c1 [Compound 1211] | 50 | 80 | 50 | 70 | 50 | 50 | 100 | 100 | 20 | 70 | 100 | 100 | 0 | 30 | 0 | 50 | 100 | 0 | 80 | 80 | pest or weed control at 500 g/ha ([7]; postemergence, 0 to 100 scale, 0 is no effect, 100 is complete control, read-out: Ryegrass, Italian plant response rating): 70%; pest or weed control at 500 g/ha ([8]; postemergence, 0 to 100 scale, 0 is no effect, 100 is complete control, read-out: Pigweed plant response rating): 30%; pest or weed control at 500 g/ha ([9]; postemergence, 0 to 100 scale, 0 is no effect, 100 is complete control, read-out: Ragweed plant response rating): 0%; pest or weed control at 500 g/ha ([10]; postemergence, 0 to 100 scale, 0 is no effect, 100 is complete control, read-out: Galium plant response rating): 60%; pest or weed control at 500 g/ha ([11]; postemergence, 0 to 100 scale, 0 is no effect, 100 is complete control, read-out: Barnyardgrass plant response rating): 100%; pest or weed control at 500 g/ha (Kochia (Kochia scoparia) [12]; postemergence, 0 to 100 scale, 0 is no effect, 100 is complete control, read-out: Kochia plant response rating): 30%; plant injury at 500 g/ha (corn (Zea mays); 500 g ai/ha, postemergence, 0 to 100 scale, 0 is no effect, 100 is complete control, read-out: Corn plant response rating): 90%; pest or weed control at 500 g/ha ([13]; postemergence, 0 to 100 scale, 0 is no effect, 100 is complete control, read-out: Foxtail, Giant plant response rating): 80%; plant injury at 125 g/ha ([14]; postemergence): 30%; plant injury at 500 g/ha ([14]; postemergence, 0 to 100 scale, 0 is no effect, 100 is complete control, read-out: Wheat plant response rating): 60%
